From publication PMC3366916, “Characterization of a Conserved Interaction between DNA Glycosylase and ParA in Mycobacterium smegmatis and M. tuberculosis” (PLoS ONE, 2012)

Assays:
MsParA (Ms6939) = biological target: T1, MsParA (Ms6939) (Mycolicibacterium smegmatis, UniProt A0R7J4); test: malachite green phosphate release ATPase assay; format: biochemical; settings: 200 uM ATP, 150 nM protein, 1 mM MgCl2, 50 mM HEPES pH 8.0, 37 C
T1 construct: gene MSMEG_6939; recombinant, E. coli BL21, pET28a (6xHis) or pGEX-4T-1 (GST)
T1 sequence (A0R7J4 1-323): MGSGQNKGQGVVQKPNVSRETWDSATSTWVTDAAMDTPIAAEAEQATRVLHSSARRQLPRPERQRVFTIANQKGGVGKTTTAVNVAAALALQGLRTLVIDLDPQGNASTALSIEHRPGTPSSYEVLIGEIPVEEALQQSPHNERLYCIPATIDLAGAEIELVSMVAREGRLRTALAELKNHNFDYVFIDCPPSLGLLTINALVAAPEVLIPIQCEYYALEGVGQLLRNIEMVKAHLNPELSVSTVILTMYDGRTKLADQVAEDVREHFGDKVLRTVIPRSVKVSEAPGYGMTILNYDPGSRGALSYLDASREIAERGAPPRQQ

MsTAG (Ms5082) = biological target: T2, MsTAG (Ms5082) (Mycolicibacterium smegmatis, UniProt A0R2E4); test: malachite green phosphate release ATPase assay; format: biochemical; settings: 200 uM ATP, 150 nM protein, 1 mM MgCl2, 50 mM HEPES pH 8.0, 37 C
T2 construct: gene tag; recombinant, E. coli BL21, pET28a (6xHis) or pGEX-4T-1 (GST)
T2 sequence (A0R2E4 1-209): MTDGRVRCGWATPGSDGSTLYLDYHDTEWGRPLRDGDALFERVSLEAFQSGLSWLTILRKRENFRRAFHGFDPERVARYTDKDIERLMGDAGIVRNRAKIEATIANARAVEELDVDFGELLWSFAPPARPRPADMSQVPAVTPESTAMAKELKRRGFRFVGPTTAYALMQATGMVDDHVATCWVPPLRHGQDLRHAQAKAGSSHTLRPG

MtTAG (Rv1210) = biological target: T3, MtTAG (Rv1210) (Mycobacterium tuberculosis, UniProt O05311)
T3 construct: gene tagA
T3 sequence (O05311 entry or part of it): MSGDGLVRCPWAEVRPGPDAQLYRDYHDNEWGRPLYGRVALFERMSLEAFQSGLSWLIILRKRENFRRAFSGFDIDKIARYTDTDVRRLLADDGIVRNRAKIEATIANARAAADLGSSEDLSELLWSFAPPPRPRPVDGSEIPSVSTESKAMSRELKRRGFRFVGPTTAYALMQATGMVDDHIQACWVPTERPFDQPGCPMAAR

Question: For Nc1ncnc2c1ncn2[C@@H]1O[C@H](COP(=O)(O)OP(=O)(O)OP(=O)(O)O)[C@@H](O)[C@H]1O [ATP], which “malachite green phosphate release ATPase assay” value (MsParA (Ms6939)) is on record?
Answer: verifying that MsParA had ATPase activity (Fig. 5A)

Question: And the “malachite green phosphate release ATPase assay” value (MsTAG (Ms5082))?
Answer: MsTAG was found to have stronger ATPase activity than MsParA under the same conditions

Question: What about the “malachite green phosphate release ATPase assay” value (MtTAG (Rv1210)) of the same compound?
Answer: MtTAG had an obvious ATPase activity but Rv1210-K78A, its mutant variant, did not
